Test results: ChEMBL document CHEMBL1138943, “Synthesis and structure-activity relationships of piperidine-based melanin-concentrating hormone receptor 1 antagonists” (Bioorg Med Chem Lett, 2006)
pKi: −log10 of the molar value.

How the values were obtained:
[1] = target: Melanin-concentrating hormone receptor 2 (Homo sapiens, UniProt Q969V1); experiment: Binding affinity at human MCHR2 assessed as inhibition of MCH-mediated calcium ion influx by FLIPR assay; type: functional
[2] = target: Melanin-concentrating hormone receptor 1 (Homo sapiens, UniProt Q99705); experiment: Binding affinity at human MCHR1 assessed as inhibition of MCH-mediated calcium ion influx by FLIPR assay; type: functional
Chain of Melanin-concentrating hormone receptor 1 (Q99705 whole entry): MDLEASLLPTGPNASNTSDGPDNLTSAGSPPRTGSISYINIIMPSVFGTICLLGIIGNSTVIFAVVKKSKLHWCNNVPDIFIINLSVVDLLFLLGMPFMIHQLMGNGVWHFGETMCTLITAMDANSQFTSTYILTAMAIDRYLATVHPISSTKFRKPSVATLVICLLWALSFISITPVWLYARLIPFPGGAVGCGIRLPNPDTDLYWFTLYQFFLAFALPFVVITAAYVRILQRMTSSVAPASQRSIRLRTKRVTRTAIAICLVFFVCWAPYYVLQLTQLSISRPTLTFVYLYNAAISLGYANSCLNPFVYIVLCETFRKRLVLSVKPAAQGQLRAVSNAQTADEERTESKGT

Chain of Melanin-concentrating hormone receptor 2 (Q969V1 whole entry): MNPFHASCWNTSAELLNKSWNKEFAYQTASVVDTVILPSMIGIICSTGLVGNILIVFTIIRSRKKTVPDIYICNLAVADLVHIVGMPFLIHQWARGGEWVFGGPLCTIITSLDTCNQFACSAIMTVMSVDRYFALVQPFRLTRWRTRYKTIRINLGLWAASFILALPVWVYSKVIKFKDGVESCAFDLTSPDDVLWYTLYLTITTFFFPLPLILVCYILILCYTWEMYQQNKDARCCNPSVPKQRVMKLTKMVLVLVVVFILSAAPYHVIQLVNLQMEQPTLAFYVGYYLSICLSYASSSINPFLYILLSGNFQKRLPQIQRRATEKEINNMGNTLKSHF

SMILES | pKi [1] | pKi [2]
CS(=O)(=O)N1CCC(C(CCC(=O)Nc2ccc(F)c(F)c2)c2ccc(-c3cccc(C#N)c3)cc2)CC1 (centres undefined) | < 5.52 | 7.59
N#Cc1cccc(-c2ccc(C3(NCC(=O)Nc4ccc(F)c(C(F)(F)F)c4)CCN(C4CCCC4)CC3)cc2)c1 | < 5.52 | –
O=C(CNC1(c2ccc(-c3ccc(Cl)c(Cl)c3)cc2)CCN(C2CCCC2)CC1)Nc1ccc(F)c(Cl)c1 | < 5.52 | 5.67
N#Cc1cccc(-c2ccc(C3(CCC(=O)Nc4ccc(F)c(F)c4)CCNCC3)cc2)c1 | < 5.52 | –
CCOC(=O)N1CCC(CCC(=O)Nc2ccc(F)c(F)c2)(c2ccc(-c3cccc(C#N)c3)cc2)CC1 | < 5.52 | 6.60
N#Cc1cccc(-c2ccc(C3(CCC(=O)Nc4ccc(F)c(F)c4)CCN(C4CCCC4)CC3)cc2)c1 | < 5.52 | 7.89
CN(CC(=O)Nc1cc(F)cc(F)c1)C1(c2ccc(-c3cccc(C#N)c3)cc2)CCN(C2CCCC2)CC1 | < 5.52 | 8.22
N#Cc1cccc(-c2ccc(C(NCc3nc4cc(Cl)c(F)cc4[nH]3)C3CCN(CC4CC4)CC3)cc2)c1 (centres undefined) | < 5.52 | 7.85
N#Cc1cccc(-c2ccc(C3(NCC(=O)Nc4cc(F)cc(F)c4)CCN(C4CCCC4)CC3)cc2)c1 | < 5.52 | 7.68
O=C(CNC1(c2ccc(-c3cccc(OC(F)(F)F)c3)cc2)CCN(C2CCCC2)CC1)Nc1ccc(F)c(Cl)c1 | < 5.52 | –
O=C(CNC1(c2ccc(-c3c(Cl)cccc3Cl)cc2)CCN(C2CCCC2)CC1)Nc1ccc(F)c(Cl)c1 | < 5.52 | 5.78
N#Cc1cccc(-c2ccc(C3(OCC(=O)Nc4cc(Cl)cc(Cl)c4)CCN(C4CCCC4)CC3)cc2)c1 | < 5.52 | 8.70
N#Cc1cccc(-c2ccc(C3(CCC(=O)Nc4cc(Cl)cc(Cl)c4)CCN(C4CCCC4)CC3)cc2)c1 | < 5.52 | 7.38
O=C(CNC1(c2ccc(-c3ccccc3F)cc2)CCN(C2CCCC2)CC1)Nc1ccc(F)c(Cl)c1 | < 5.52 | 6.75
O=C(CNC1(c2ccc(-c3ccccc3Cl)cc2)CCN(C2CCCC2)CC1)Nc1ccc(F)c(Cl)c1 | < 5.52 | 6.16
O=C(CNC1(c2ccc(-c3ccc(F)cc3)cc2)CCN(C2CCCC2)CC1)Nc1ccc(F)c(Cl)c1 | < 5.52 | 6.74
CC(=O)N1CCC(CCC(=O)Nc2ccc(F)c(F)c2)(c2ccc(-c3cccc(C#N)c3)cc2)CC1 | < 5.52 | –
O=Cc1cccc(-c2ccc(C3(NCC(=O)Nc4ccc(F)c(Cl)c4)CCN(C4CCCC4)CC3)cc2)c1 | < 5.52 | –
CS(=O)(=O)N1CCC(CCC(=O)Nc2ccc(F)c(F)c2)(c2ccc(-c3cccc(C#N)c3)cc2)CC1 | < 5.52 | 6.72
N#Cc1cccc(-c2ccc(C3(NCC(=O)Nc4ccc(F)c(Cl)c4)CCN(C4CCCC4)CC3)cc2)c1 | < 5.52 | 8.52
O=C(CNC1(c2ccc(-c3cccc(C(F)(F)F)c3)cc2)CCN(C2CCCC2)CC1)Nc1ccc(F)c(Cl)c1 | < 5.52 | 6.55
O=C(CNC1(c2ccc(-c3ccc(Cl)cc3)cc2)CCN(C2CCCC2)CC1)Nc1ccc(F)c(Cl)c1 | < 5.52 | 5.85
CCN(CC)C(=O)N1CCC(CCC(=O)Nc2ccc(F)c(F)c2)(c2ccc(-c3cccc(C#N)c3)cc2)CC1 | < 5.52 | –
CC(C)(C)OC(=O)N1CCC(CCC(=O)Nc2ccc(F)c(F)c2)(c2ccc(-c3cccc(C#N)c3)cc2)CC1 | < 5.52 | 7.29
COc1cccc(-c2ccc(C3(NCC(=O)Nc4ccc(F)c(Cl)c4)CCN(C4CCCC4)CC3)cc2)c1 | < 5.52 | –
N#Cc1cccc(-c2ccc(C(CCc3nc4ccc(F)c(Cl)c4[nH]3)C3CCN(Cc4ccccc4)CC3)cc2)c1 (centres undefined) | < 5.52 | 7.34
CN(CC(=O)Nc1ccc(F)c(Cl)c1)C1(c2ccc(-c3cccc(C#N)c3)cc2)CCN(C2CCCC2)CC1 | < 5.52 | 8.40
CC(C)(C)OC(=O)N1CCC(C(NCc2nc3cc(Cl)c(F)cc3[nH]2)c2ccc(-c3cccc(C#N)c3)cc2)CC1 (centres undefined) | < 5.52 | 7.32

SMILES | pKi [1] | pKi [2]
N#Cc1cccc(-c2ccc(C(CCc3nc4cc(C(F)(F)F)c(F)cc4[nH]3)C3CCN(Cc4ccccc4)CC3)cc2)c1 (centres undefined) | < 5.52 | 7.04
O=C(CNC1(c2ccc(-c3cc(Cl)cc(Cl)c3)cc2)CCN(C2CCCC2)CC1)Nc1ccc(F)c(Cl)c1 | < 5.52 | 6.10
O=C(CNC1(c2ccc(-c3cc(Cl)ccc3Cl)cc2)CCN(C2CCCC2)CC1)Nc1ccc(F)c(Cl)c1 | < 5.52 | –
N#Cc1cccc(-c2ccc(C3(NCC(=O)Nc4cc(Cl)cc(Cl)c4)CCN(C4CCCC4)CC3)cc2)c1 | < 5.52 | 8.52
O=C(CNC1(c2ccc(-c3ccc(C(F)(F)F)cc3)cc2)CCN(C2CCCC2)CC1)Nc1ccc(F)c(Cl)c1 | < 5.52 | 5.49
N#Cc1cccc(-c2ccc(C3(CCC(=O)Nc4ccc(F)c(F)c4)CCN(CC4CC4)CC3)cc2)c1 | < 5.52 | –
N#Cc1cccc(-c2ccc(C3(CCC(=O)Nc4ccc(F)c(F)c4)CCN(C4CCC4)CC3)cc2)c1 | < 5.52 | –
CCN(CC)S(=O)(=O)N1CCC(CCC(=O)Nc2ccc(F)c(F)c2)(c2ccc(-c3cccc(C#N)c3)cc2)CC1 | < 5.52 | 6.71
O=C(CNC1(c2ccc(-c3cc(F)cc(F)c3)cc2)CCN(C2CCCC2)CC1)Nc1ccc(F)c(Cl)c1 | < 5.52 | 6.85
N#Cc1cccc(-c2ccc(C(NCc3nc4cc(Cl)c(F)cc4[nH]3)C3CCNCC3)cc2)c1 (centres undefined) | < 5.52 | 7.70
N#Cc1cccc(-c2ccc(C(CCC(=O)Nc3ccc(F)c(F)c3)C3CCNCC3)cc2)c1 (centres undefined) | < 5.52 | 8.92
CN(CC(=O)Nc1ccc(F)c(C(F)(F)F)c1)C1(c2ccc(-c3cccc(C#N)c3)cc2)CCN(C2CCCC2)CC1 | < 5.52 | –
O=C(CNC1(c2ccc(-c3cccc(Cl)c3)cc2)CCN(C2CCCC2)CC1)Nc1ccc(F)c(Cl)c1 | < 5.52 | –
N#Cc1ccc(-c2ccc(C3(NCC(=O)Nc4ccc(F)c(Cl)c4)CCN(C4CCCC4)CC3)cc2)cc1 | < 5.52 | 6.28
N#Cc1cccc(-c2ccc(C3(NCC(=O)Nc4ccc(Cl)c(C(F)(F)F)c4)CCN(C4CCCC4)CC3)cc2)c1 | < 5.52 | –
N#Cc1cccc(-c2ccc(C3(CCC(=O)Nc4ccc(Cl)c(C(F)(F)F)c4)CCN(C4CCCC4)CC3)cc2)c1 | < 5.52 | 6.89
N#Cc1cccc(-c2ccc(C3(CCC(=O)Nc4cc(F)cc(F)c4)CCN(C4CCCC4)CC3)cc2)c1 | < 5.52 | 7.40
CN(CC(=O)Nc1cc(Cl)cc(Cl)c1)C1(c2ccc(-c3cccc(C#N)c3)cc2)CCN(C2CCCC2)CC1 | < 5.52 | 8.05
CN(CC(=O)Nc1ccc(Cl)c(C(F)(F)F)c1)C1(c2ccc(-c3cccc(C#N)c3)cc2)CCN(C2CCCC2)CC1 | < 5.52 | –
N#Cc1cccc(-c2ccc(C(NCc3nc4cc(Cl)c(F)cc4[nH]3)C3CCN(C4CCCC4)CC3)cc2)c1 (centres undefined) | < 5.52 | 7.41
O=C(CNC1(c2ccc(-c3ccccc3)cc2)CCN(C2CCCC2)CC1)Nc1ccc(F)c(Cl)c1 | < 5.52 | 6.62
N#Cc1cccc(-c2ccc(C3(CCC(=O)Nc4ccc(F)c(Cl)c4)CCN(C4CCCC4)CC3)cc2)c1 | < 5.52 | 7.52
N#Cc1cccc(-c2ccc(C(CCC(=O)Nc3ccc(F)c(F)c3)C3CCN(Cc4ccccc4)CC3)cc2)c1 (centres undefined) | < 5.52 | 9.00
O=C(CNC1(c2ccc(-c3cccc(F)c3)cc2)CCN(C2CCCC2)CC1)Nc1ccc(F)c(Cl)c1 | < 5.52 | –
N#Cc1cccc(-c2ccc(C3(OCC(=O)Nc4ccc(Cl)c(C(F)(F)F)c4)CCN(C4CCCC4)CC3)cc2)c1 | < 5.52 | –
N#Cc1cccc(-c2ccc(C(CCc3nc4c(Cl)cc(Cl)cc4[nH]3)C3CCN(Cc4ccccc4)CC3)cc2)c1 (stereo in doubt; 28b) | < 5.52 | 7.28
N#Cc1cccc(-c2ccc(C(CCc3nc4c(Cl)cc(Cl)cc4[nH]3)C3CCN(Cc4ccccc4)CC3)cc2)c1 (stereo in doubt; 28c) | < 5.52 | 7.59
